{"source": "patent US20250155433A1", "about": "“FLUORESCENT SENSORS FOR DETECTION OF SIDEROPHORES AND OTHER MOLECULES PRODUCED BY BACTERIAL PATHOGENS” (Kansas State University Research Foundation, priority 2021, published 2025)", "key": {"KpnFyuA": {"biological_target": "KpnFyuA", "assay": "Fluorescence quenching binding to KpnFyuA-FM sensor", "parameters": "species or system Klebsiella pneumoniae", "protocol": "(§1) Fluorescence modifications. For modifications with maleimide fluorophores, we inoculated E. coli strains OKN3, OKN13, OKN359 or OKN1359, harboring plasmids that encoded a Cys mutant LGP, from frozen stocks into LB, grew them overnight and sub-cultured at 1% into iron-deficient MOPS minimal media, with shaking (200 rpm) at 37° C. for 10-12 h, until late exponential phase. After collecting the cells by centrifugation at 7500×g for 15 min, and washing with 50 mM NaHPO4, pH 6.7, we labeled the Cys-mutant LGP with 5 μM FM in 50 mM NaHPO4, pH 6.7 for 15 min at 37° C. FM. We terminated the labeling reactions with 100 μM β-mercaptoethanol. After collecting the fluoresceinated cells by centrifugation at 7500×g for 15 min, and washing with 50 mM NaHPO4, pH 6.7, we re-suspended them in PBS plus 0.2% glucose. We either immediately used the labeled cells in spectroscopic experiments, or rested them on ice (up to 24 h), or added glycerol to 15% and stored them (indefinitely) as 1 mL aliquots at −70° C. […] After electrophoresis, we first visualized the fluorescence labeling on a Typhoon 8600 Biomolecular Scanner (GE/Amersham), and then stained the gels with Coomassie blue R (153).\n(§2) Fluorescence spectroscopic binding determinations. We observed fluorophore-labeled cells in an SLM AMINCO 8100 fluorescence spectrometer, upgraded with an OLIS operating system and software (OLIS SpectralWorks, OLIS Inc., Bogart, GA), to control its shutters, polarizers and data collection. We also utilized an OLIS Clarity fluorescence spectrometer for fluorescence assays. For binding determinations we deposited 2.5×10^7 labeled cells in a quartz cuvette (final volume, 2 mL) with stirring at 37° C., measured the initial fluorescence (F0), and then added increasing concentrations of an iron complex while monitoring the quenching of fluorescence emissions (F) at 520 nm. We performed each measurement in triplicate and calculated the mean value of F/F0 at each ligand concentration. […]\n(§3) Table 1 lists KD values from analysis of fluorescence quenching with ferric or apo (parenthetic values) siderophores or porphyrins. […]"}, "EcoIutA": {"biological_target": "T1, EcoIutA (Escherichia coli, UniProt P14542, T573C)", "T1 construct": "expressed in transfected cells; host or cells: E. coli OKN3/OKN13/OKN359/OKN1359 carrying a pITS23 derivative", "assay": "Fluorescence quenching binding to EcoIutA-FM sensor", "conditions": "for Binding by IutA: other ferric hydroxamates", "protocol": "(§4) Fluorescence modifications. For modifications with maleimide fluorophores, we inoculated E. coli strains OKN3, OKN13, OKN359 or OKN1359, harboring plasmids that encoded a Cys mutant LGP, from frozen stocks into LB, grew them overnight and sub-cultured at 1% into iron-deficient MOPS minimal media, with shaking (200 rpm) at 37° C. for 10-12 h, until late exponential phase. After collecting the cells by centrifugation at 7500×g for 15 min, and washing with 50 mM NaHPO4, pH 6.7, we labeled the Cys-mutant LGP with 5 μM FM in 50 mM NaHPO4, pH 6.7 for 15 min at 37° C. FM. We terminated the labeling reactions with 100 μM β-mercaptoethanol. After collecting the fluoresceinated cells by centrifugation at 7500×g for 15 min, and washing with 50 mM NaHPO4, pH 6.7, we re-suspended them in PBS plus 0.2% glucose. We either immediately used the labeled cells in spectroscopic experiments, or rested them on ice (up to 24 h), or added glycerol to 15% and stored them (indefinitely) as 1 mL aliquots at −70° C. In the latter case, after thawing the labeled cells we pelleted them by centrifugation in a microfuge, washed them once with and re-suspended them in PBS containing 0.2% glucose. Lastly, for evaluation of protein expression or the extent of FM-labeling we solubilized aliquots of the cell suspensions with sample buffer, and subjected them to SDS-PAGE. After electrophoresis, we first visualized the fluorescence labeling on a Typhoon 8600 Biomolecular Scanner (GE/Amersham), and then stained the gels with Coomassie blue R (153).\nas §2, with “concentration. We plotted 1−F/F0 vs [ligand] and analyzed the data by the 1-site binding model of Grafit 6.0.12 (Erithacus Ltd. West Sussex, UK), that fits data to a single site saturation curve, where the amount of ligand bound is plotted as a function of the amount free:” for “concentration.”\nas §3"}, "[1]": {"biological_target": "T2, HsaSCN (human siderocalin) (Homo sapiens, UniProt P80188, Q148C)", "T2 construct": "adds a 6H-tag at either the N- or C-termini of the mature proteins; 6-His (N); made in house; host or cells: E. coli BL21 (pET28), IPTG-induced; purified on Talon Superflow", "assay": "Fluorescence quenching binding to purified HsaSCN-FM sensor"}, "EcoFhuA": {"biological_target": "EcoFhuA (Escherichia coli, UniProt P06971)", "assay": "Fluorescence quenching binding to EcoFhuA-FM sensor", "protocol": "as §4\nas §2, with “concentration. We plotted 1−F/F0 vs [ligand] and analyzed the data by the 1-site binding model of Grafit 6.0.12 (Erithacus Ltd. West Sussex, UK), that fits data to a single site saturation curve, where the amount of ligand bound is plotted as a function of the amount free:” for “concentration.”\nas §3"}, "AbaPiuA": {"biological_target": "AbaPiuA (Acinetobacter baumannii, UniProt D0CAH3, S724C)", "assay": "Fluorescence quenching binding to AbaPiuA-FM sensor", "protocol": "as §1, §2, §3"}, "EcoFiu": {"biological_target": "T3, EcoFiu (Escherichia coli, UniProt P75780, A694C)", "T3 construct": "expressed in transfected cells; host or cells: E. coli OKN3/OKN13/OKN359/OKN1359 carrying a pITS23 derivative", "assay": "biochemical", "format": "binding", "protocol": "as §4\n(§5) Fluorescence spectroscopic binding determinations. We observed fluorophore-labeled cells in an SLM AMINCO 8100 fluorescence spectrometer, upgraded with an OLIS operating system and software (OLIS SpectralWorks, OLIS Inc., Bogart, GA), to control its shutters, polarizers and data collection. We also utilized an OLIS Clarity fluorescence spectrometer for fluorescence assays. For binding determinations we deposited 2.5×10^7 labeled cells in a quartz cuvette (final volume, 2 mL) with stirring at 37° C., measured the initial fluorescence (F0), and then added increasing concentrations of an iron complex while monitoring the quenching of fluorescence emissions (F) at 520 nm. We performed each measurement in triplicate and calculated the mean value of F/F0 at each ligand concentration. We plotted 1−F/F0 vs [ligand] and analyzed the data by the 1-site binding model of Grafit 6.0.12 (Erithacus Ltd. West Sussex, UK), that fits data to a single site saturation curve, where the amount of ligand bound is plotted as a function of the amount free:\n(§6) These plots yielded KD values for each of the receptor-ligand interactions, with associated standard errors.\n(§7) Table 1 lists KD values from analysis of fluorescence quenching with ferric or apo (parenthetic values) siderophores or porphyrins. For each determination, we measured the extent of fluorescence quenching of an FLGP, when exposed to sequentially increasing concentrations of the listed metal complexes, as plotted in FIGS. 2-4. We performed each experiment 2 or 3 times. The tabulated KD values are from single, representative experiments, in which we collected each data point in triplicate, plotted F/F0 vs [ligand] for each quenching titration, and fitted the curves to a single site binding model using Grafit 6.012 (Erithacus Ltd, […], UK)."}, "EcoCir": {"biological_target": "T4, EcoCir (Escherichia coli, UniProt P17315, G512C)", "T4 construct": "expressed in transfected cells; host or cells: E. coli OKN3/OKN13/OKN359/OKN1359 carrying a pITS23 derivative", "assay": "biochemical", "format": "binding", "protocol": "as §4, §5, §6, §7"}, "AbaPirA": {"biological_target": "T5, AbaPirA (Acinetobacter baumannii, UniProt D0C8V9)", "T5 construct": "fused on or other part: EcoFepA signal peptide in place of its own (cleaved on export); fluorescein maleimide on the engineered Cys", "conditions": "read-out: Affinity (KD) of sensor AbaPirA; ferric complexes; Cys residue S328C, FM-labeled; NB = no binding", "description": "For modifications with maleimide fluorophores, we inoculated E. coli strains OKN3, OKN13, OKN359 or OKN1359, harboring plasmids that encoded a Cys mutant LGP, from frozen stocks into LB, grew them overnight and sub-cultured at 1% into iron-deficient MOPS minimal media, with shaking (200 rpm) at 37° C. for 10-12 h, until late exponential phase. After collecting the cells by centrifugation at 7500×g for 15 min, and washing with 50 mM NaHPO4, pH 6.7, we labeled the Cys-mutant LGP with 5 μM FM in 50 mM NaHPO4, pH 6.7 for 15 min at 37° C. […] We terminated the labeling reactions with 100 μM β-mercaptoethanol. […]\nWe also utilized an OLIS Clarity fluorescence spectrometer for fluorescence assays. […] We performed each measurement in triplicate and calculated the mean value of F/F0 at each ligand concentration. We plotted 1−F/F0 vs [ligand] and analyzed the data by the 1-site binding model of Grafit 6.0.12 (Erithacus Ltd. West Sussex, UK), that fits data to a single site saturation curve, where the amount of ligand bound is plotted as a function of the amount free:\nFor each determination, we measured the extent of fluorescence quenching of an FLGP, when exposed to sequentially increasing concentrations of the listed metal complexes, as plotted in FIGS. 2-4. […]"}, "AbaBauA": {"biological_target": "AbaBauA (Acinetobacter baumannii, UniProt Q76HJ9, S407C)", "assay": "Fluorescence quenching binding to AbaBauA-FM sensor", "protocol": "as §1, with “β-mercaptoethanol.” for “β-mercaptoethanol. After collecting the fluoresceinated cells by centrifugation at 7500×g for 15 min, and washing with 50 mM NaHPO4, pH 6.7, we re-suspended them in PBS plus 0.2% glucose. We either immediately used the labeled cells in spectroscopic experiments, or rested them on ice (up to 24 h), or added glycerol to 15% and stored them (indefinitely) as 1 mL aliquots at −70° C.”\n(§8) Fluorescence spectroscopic binding determinations. We observed fluorophore-labeled cells in an SLM AMINCO 8100 fluorescence spectrometer, upgraded with an OLIS operating system and software (OLIS SpectralWorks, OLIS Inc., Bogart, GA), to control its shutters, polarizers and data collection. We also utilized an OLIS Clarity fluorescence spectrometer for fluorescence assays. […] We performed each measurement in triplicate and calculated the mean value of F/F0 at each ligand concentration. […]"}, "KpnIroN": {"biological_target": "KpnIroN (Klebsiella pneumoniae, UniProt A0ACD7U953, T234C)", "assay": "Fluorescence quenching binding to KpnIroN-FM sensor", "conditions": "read-out: Affinity (KD) of sensor KpnIroN; ferric complexes; Cys residue T210C, FM-labeled; NB = no binding", "protocol": "as §1, with “β-mercaptoethanol.” for “β-mercaptoethanol. After collecting the fluoresceinated cells by centrifugation at 7500×g for 15 min, and washing with 50 mM NaHPO4, pH 6.7, we re-suspended them in PBS plus 0.2% glucose. We either immediately used the labeled cells in spectroscopic experiments, or rested them on ice (up to 24 h), or added glycerol to 15% and stored them (indefinitely) as 1 mL aliquots at −70° C.”\nas §8"}, "[2]": {"conditions": "read-out: Affinity (KD) of sensor EcoFhuA, ferric complexes, Cys residue D396C, FM-labeled, NB = no binding"}}, "note": "Read-outs that look alike come from different tables or passages of the source. Where a SMILES comes first, the peptide text is derived from it. [ ]: non-standard residue; d: D form. Orn(N5-OH,N5-Ac) = CC(=O)N(O)CCC[C@H](N)C(=O)O", "data": [{"smiles": "CC(=O)N(O)CCCCCNC(=O)CCC(=O)N(O)CCCCCNC(=O)CCC(=O)N(O)CCCCCN.[Fe+3]", "note": "[FxB]", "values": [{"measurement": "Kd", "setting": "KpnFyuA; ferric complexes, Cys residue S631C, FM-labeled, NB = no binding, read-out: Affinity (KD) of sensor KpnFyuA", "result": 277000, "unit": "nM"}, {"measurement": "Binding by KpnFyuA", "setting": "KpnFyuA; secondary ligands", "result": "weakly bound"}, {"measurement": "Binding by IutA", "setting": "EcoIutA", "result": "did not measurably bind"}, {"measurement": "Kd", "setting": "[1]; read-out: Affinity (KD) of sensor HsaSCN, ferric complexes and porphyrins, Cys residue Q128C, FM-labeled purified protein, NB = no binding", "result": 175, "unit": "nM"}, {"measurement": "Kd", "setting": "[1]; read-out: KD, HsaSCN-FM", "result": 180, "unit": "nM"}, {"measurement": "Kd", "setting": "EcoFhuA; [2]", "result": 100000, "unit": "nM"}]}, {"smiles": "O=C(N[C@@H](CO)C(=O)O)c1cccc(O)c1O.[Fe+3]", "note": "[FeDHBS]", "values": [{"measurement": "Binding by AbaPiuA", "setting": "AbaPiuA", "result": "did not bind"}]}, {"smiles": "CC(C)(O/N=C(\\C(=O)N[C@@H]1C(=O)N2C(C(=O)[O-])=C(C[N+]3(CCNC(=O)c4ccc([O-])c([O-])c4Cl)CCCC3)CS[C@H]12)c1csc(N)n1)C(=O)[O-].[Fe+3]", "note": "[FeFDC]", "values": [{"measurement": "Kd", "setting": "EcoFiu", "result": 540, "unit": "nM"}, {"measurement": "Kd", "setting": "EcoCir", "result": 60, "unit": "nM"}, {"measurement": "Kd", "setting": "AbaPiuA", "result": 57000, "unit": "nM"}, {"measurement": "Kd", "setting": "AbaPirA", "result": 4800, "unit": "nM"}, {"measurement": "Kd", "setting": "AbaBauA", "result": 181000, "unit": "nM"}, {"measurement": "Kd", "setting": "KpnIroN", "result": 580, "unit": "nM"}]}, {"smiles": "CC(=O)N(O)CCCC[C@H](NC(=O)CC(O)(CC(=O)N[C@@H](CCCCN(O)C(C)=O)C(=O)O)C(=O)O)C(=O)O", "note": "[Abn, aerobactin]", "values": [{"measurement": "Kd", "setting": "EcoIutA", "result": 1400, "unit": "nM"}]}, {"smiles": "O=C([C@@H]1CSC(c2cccc(O)c2O)=N1)N(O)CCc1c[nH]cn1.[Fe+3]", "note": "[FeAgn]", "values": [{"measurement": "Kd", "setting": "[1]; read-out: KD, HsaSCN-FM", "result": 160, "unit": "nM"}, {"measurement": "Kd", "setting": "AbaBauA; read-out: Affinity (KD) of sensor AbaBauA, ferric complexes, Cys residue S385C, FM-labeled, NB = no binding", "result": 1100, "unit": "nM"}]}, {"smiles": "C/C(=C\\C(=O)N(O)CCC[C@@H]1NC(=O)CNC(=O)[C@H](CO)NC(=O)[C@H](CO)NC(=O)[C@H](CCCN(O)C(=O)/C=C(\\C)CC(=O)O)NC(=O)[C@H](CCCN(O)C(=O)/C=C(\\C)CC(=O)O)NC1=O)CC(=O)O.[Fe+3]", "note": "[FcA]", "values": [{"measurement": "Binding by IutA", "setting": "EcoIutA", "result": "did not measurably bind"}, {"measurement": "Kd", "setting": "EcoFhuA; [2]", "result": 60, "unit": "nM"}]}, {"smiles": "CC(=O)N(O)CCC[C@@H]1NC(=O)CNC(=O)CNC(=O)CNC(=O)[C@H](CCCN(O)C(C)=O)NC(=O)[C@H](CCCN(O)C(C)=O)NC1=O", "note": "[apoFc] (cyclo(GGG[Orn(N5-OH,N5-Ac)][Orn(N5-OH,N5-Ac)][Orn(N5-OH,N5-Ac)]))", "values": [{"measurement": "Kd", "setting": "EcoFhuA; read-out: Affinity (KD) of sensor EcoFhuA, apo siderophore, apo (parenthetic value), D396C", "result": 200, "unit": "nM"}]}]}
